In ChEMBL document CHEMBL3885861, “Open TG-GATES”:

Species on record: Rattus norvegicus
Assay: Open TG-GATES - Regimen: Single
Type: toxicity, organism-based, Sprague-Dawley
Set-up: regimen Single, gender Male, age 6 weeks
Conditions: in vivo, po, route gavage; for TP / gamma-GTP / A/G / ALP / ALT / AST / BUN / CRE / Ca / Cl / DBIL / GLC / IP / K / LDH / Na / PL / RALB / TBIL / TC / TG: tissue Plasma; for APTT / Bas / Eos / Fbg / Hb / Ht / Lym / MCH / MCHC / MCV / Mono / Neu / PT / Plat / RBC / Ret / WBC: tissue Blood; for KIDNEY_L / KIDNEY_R / KIDNEY_TOTAL: tissue Kidney; for LIVER: tissue Liver
[1] = 2 mg/kg, 3 h, dose level Middle
[2] = 2 mg/kg, 6 h, dose level Middle
[3] = 2 mg/kg, 9 h, dose level Middle

Compound `COc1ccc2c(c1)c(CC(=O)O)c(C)n2C(=O)c1ccc(Cl)cc1` [INDOMETHACIN] has a TP (1 mg/kg, 9 h, dose level Low) of 5.3 g/dL, a gamma-GTP (1 mg/kg, 9 h, dose level Low) of 1.4 IU/L and a TERMINAL_BW (1 mg/kg, 24 h, dose level Low) of 215.2 g. It also gave an APTT (1 mg/kg, 24 h, dose level Low) of 16.8 s, a Bas (1 mg/kg, 24 h, dose level Low) of 0% and an Eos (1 mg/kg, 24 h, dose level Low) of 0.8%. The Fbg (1 mg/kg, 24 h, dose level Low) was 198.2 mg/dL, the Hb (1 mg/kg, 24 h, dose level Low) was 13.5 g/dL and the Ht (1 mg/kg, 24 h, dose level Low) was 40.7%. It also gave a Lym (1 mg/kg, 24 h, dose level Low) of 79%, an MCH (1 mg/kg, 24 h, dose level Low) of 21.8 pg and an MCHC (1 mg/kg, 24 h, dose level Low) of 33.2%. For the same compound, the MCV (1 mg/kg, 24 h, dose level Low) was 65.6 fL, the Mono (1 mg/kg, 24 h, dose level Low) was 8.8% and the Neu (1 mg/kg, 24 h, dose level Low) was 11.4%. It also gave a PT (1 mg/kg, 24 h, dose level Low) of 12.3 s, a Plat (1 mg/kg, 24 h, dose level Low) of 112.3 x10_4/uL and an RBC (1 mg/kg, 24 h, dose level Low) of 620.8 x10_4/ul. It also gave a Ret (1 mg/kg, 24 h, dose level Low) of 9%, a WBC (1 mg/kg, 24 h, dose level Low) of 118.2 x10_2/uL and a KIDNEY_L (1 mg/kg, 24 h, dose level Low) of 1 g. The KIDNEY_R (1 mg/kg, 24 h, dose level Low) was 1 g, the KIDNEY_TOTAL (1 mg/kg, 24 h, dose level Low) was 1.9 g and the LIVER (1 mg/kg, 24 h, dose level Low) was 10.2 g. It also gave an A/G (1 mg/kg, 24 h, dose level Low) of 2.2, an ALP (1 mg/kg, 24 h, dose level Low) of 1141.2 IU/L and an ALT (1 mg/kg, 24 h, dose level Low) of 41.2 IU/L. It also gave an AST (1 mg/kg, 24 h, dose level Low) of 71 IU/L, a BUN (1 mg/kg, 24 h, dose level Low) of 16.6 mg/dL and a CRE (1 mg/kg, 24 h, dose level Low) of 0.5 mg/dL. It also gave a Ca (1 mg/kg, 24 h, dose level Low) of 10.3 mg/dL, a Cl (1 mg/kg, 24 h, dose level Low) of 105.2 meq/L and a DBIL (1 mg/kg, 24 h, dose level Low) of 0.016 mg/dL. For the same compound, the GLC (1 mg/kg, 24 h, dose level Low) was 202.6 mg/dL, the IP (1 mg/kg, 24 h, dose level Low) was 8.6 mg/dL and the K (1 mg/kg, 24 h, dose level Low) was 5.1 meq/L. For the same compound, the LDH (1 mg/kg, 24 h, dose level Low) was 85 IU/L, the Na (1 mg/kg, 24 h, dose level Low) was 138.4 meq/L and the PL (1 mg/kg, 24 h, dose level Low) was 152.8 mg/dL. It also gave an RALB (1 mg/kg, 24 h, dose level Low) of 3.9 g/dL, a TBIL (1 mg/kg, 24 h, dose level Low) of 0.3 mg/dL and a TC (1 mg/kg, 24 h, dose level Low) of 88.4 mg/dL. The TG (1 mg/kg, 24 h, dose level Low) was 72 mg/dL, the TP (1 mg/kg, 24 h, dose level Low) was 5.7 g/dL and the gamma-GTP (1 mg/kg, 24 h, dose level Low) was 1 IU/L. The TERMINAL_BW [1] was 195.5 g, the APTT [1] was 17 s and the Bas [1] was 0%. For the same compound, the Eos [1] was 0.8%, the Fbg [1] was 215 mg/dL and the Hb [1] was 13.5 g/dL. For the same compound, the Ht [1] was 40.3%, the Lym [1] was 80.2% and the MCH [1] was 22.2 pg. The MCHC [1] was 33.5%, the MCV [1] was 66.2 fL and the Mono [1] was 8%. The Neu [1] was 11.4%, the PT [1] was 12.6 s and the Plat [1] was 109.7 x10_4/uL. It also gave an RBC [1] of 609.4 x10_4/ul, a Ret [1] of 10.3% and a WBC [1] of 99.3 x10_2/uL. It also gave a KIDNEY_L [1] of 0.9 g, a KIDNEY_R [1] of 0.9 g and a KIDNEY_TOTAL [1] of 1.8 g. For the same compound, the LIVER [1] was 8.7 g, the A/G [1] was 1.6 and the ALP [1] was 1158.6 IU/L. It also gave an ALT [1] of 39.8 IU/L, an AST [1] of 74.4 IU/L and a BUN [1] of 10.6 mg/dL. It also gave a CRE [1] of 0.4 mg/dL, a Ca [1] of 10.3 mg/dL and a Cl [1] of 105.8 meq/L. The DBIL [1] was 0.056 mg/dL, the GLC [1] was 185.2 mg/dL and the IP [1] was 10 mg/dL. The K [1] was 4.8 meq/L, the LDH [1] was 99.4 IU/L and the Na [1] was 137.4 meq/L. For the same compound, the PL [1] was 125 mg/dL, the RALB [1] was 3.7 g/dL and the TBIL [1] was 0.4 mg/dL. It also gave a TC [1] of 72.2 mg/dL, a TG [1] of 40 mg/dL and a TP [1] of 6 g/dL. The gamma-GTP [1] was 1.2 IU/L, the TERMINAL_BW [2] was 199.6 g and the APTT [2] was 17 s. The Bas [2] was 0%, the Eos [2] was 0.8% and the Fbg [2] was 206.8 mg/dL. For the same compound, the Hb [2] was 13.3 g/dL, the Ht [2] was 40.2% and the Lym [2] was 81.2%. For the same compound, the MCH [2] was 21.6 pg, the MCHC [2] was 33.2% and the MCV [2] was 65.1 fL. For the same compound, the Mono [2] was 6.4%, the Neu [2] was 12% and the PT [2] was 12.5 s. The Plat [2] was 106.7 x10_4/uL, the RBC [2] was 617.8 x10_4/ul and the Ret [2] was 9.6%. The WBC [2] was 84.6 x10_2/uL, the KIDNEY_L [2] was 0.9 g and the KIDNEY_R [2] was 0.9 g. For the same compound, the KIDNEY_TOTAL [2] was 1.8 g, the LIVER [2] was 8.6 g and the A/G [2] was 1.8. The ALP [2] was 959 IU/L, the ALT [2] was 36.8 IU/L and the AST [2] was 75 IU/L. For the same compound, the BUN [2] was 10.6 mg/dL, the CRE [2] was 0.5 mg/dL and the Ca [2] was 10.1 mg/dL. The Cl [2] was 107 meq/L, the DBIL [2] was 0.036 mg/dL and the GLC [2] was 188.4 mg/dL. It also gave an IP [2] of 9.1 mg/dL, a K [2] of 4.9 meq/L and an LDH [2] of 91.4 IU/L. The Na [2] was 137.4 meq/L, the PL [2] was 120.8 mg/dL and the RALB [2] was 3.8 g/dL. For the same compound, the TBIL [2] was 0.3 mg/dL, the TC [2] was 73.4 mg/dL and the TG [2] was 38.6 mg/dL. The TP [2] was 5.9 g/dL, the gamma-GTP [2] was 2.2 IU/L and the TERMINAL_BW [3] was 198.4 g. For the same compound, the APTT [3] was 16.6 s, the Bas [3] was 0% and the Eos [3] was 0.6%. For the same compound, the Fbg [3] was 210 mg/dL, the Hb [3] was 13.1 g/dL and the Ht [3] was 39.8%. The Lym [3] was 79.6%, the MCH [3] was 21.8 pg and the MCHC [3] was 33%. The MCV [3] was 66.1 fL, the Mono [3] was 8.2% and the Neu [3] was 11.8%. For the same compound, the PT [3] was 12.4 s, the Plat [3] was 108.3 x10_4/uL and the RBC [3] was 602.2 x10_4/ul. It also gave a Ret [3] of 9.7%.
